Read-outs that look alike come from different tables or passages of the source.
What was measured:
[1] = tested on: animal models of inflammation; details: in vivo; cited from earlier work
[2] = type: in vivo; details: for Survival (animal recorded dead in weight table): first study; for survival status noted in Animal Weights table: second study, group 3
Excerpt: All animals were weighed daily and their survival recorded, in order to assess possible differences in animal weight among treatment groups as an indication for mucositis severity and/or possible toxicity resulting from the treatments.
All forty-eight (48) male Syrian Golden Hamsters were given an acute radiation dose of 40 Gy directed to their left buccal cheek pouch. This was accomplished by anesthetizing the animals and everting the left buccal pouch, while protecting the rest of the animal with a lead shield. Test materials were given either topically or by ip injection twice daily as detailed in Table 1. Mucositis was evaluated clinically starting on day 6, and continuing on alternate days until day 28. The study timeline is depicted in FIG. 1. Dose levels were determined based on the results of a previous acute toxicity study (data not shown), and the levels shown in Table 1.
Male LVG Syrian Golden Hamsters (Charles River Laboratories), aged 5 to 6 weeks, with average body weight of 84.1 g at study commencement, were used. Animals were individually numbered using an ear punch and housed in small groups of approximately 8 animals per cage. Animals were acclimatized prior to study commencement. During this period of 2 days, the animals were observed daily in order to reject animals that presented in poor condition.
The significance of these differences was evaluated by calculating the mean area under the curve for the percentage weight gain for each animal and comparing the groups using a OneWay ANOVA test. There was a significant difference between the control group and group 3 treated by ip injection with M40403 twice daily (30 mg/kg) on days −1 to 15 (P<0.001). There was also a significant difference between the control group and the group treated by ip injection with M40403 twice daily at 30 mg/kg/dose from day −1 to day 3 (P=0.018). No other significant differences were seen. […] Many of the groups with a significant reduction in weight gain are the same groups in which animal deaths were observed.

[3] = tested on: animal model of rheumatoid arthritis; details: rat, in vivo; cited from earlier work

What does the source list for `[Cl-].[Cl-].[Mn+2].c1cc2nc(c1)CN[C@@H]1CCCC[C@H]1NCCN[C@@H]1CCCC[C@H]1NC2` [M40403]?
efficacy in animal models of inflammation [1]: effective; Survival (animal recorded dead in weight table) ([2]; Group 2, day 0): dead; Survival (animal recorded dead in weight table) ([2]; Group 5, day 0): dead; Survival (animal recorded dead in weight table) ([2]; Group 6, day 0): dead; deaths during the study ([2]; group 3: ip 30 mg/kg bid day −1 to 15, hamster 19, after extended failure to gain weight): died on day 12; deaths during the study ([2]; group 6: ip 30 mg/kg bid day −1 to 3, appeared to be anesthesia overdose): two; average weight gain, % of starting weight by day 28 ([2]; hamster, in vivo, ip, 3 mg/kg): 66.0%; weight gain during dosing ([2]; hamster, in vivo, ip, 30 mg/kg): general lack of weight gain during dosing; toxicity based on mortality and body weight ([2]; ip injections twice daily at 30 mg/kg): appear to show some toxicity; survival status noted in Animal Weights table ([2]; animal 19, day 12): dead; survival status noted in Animal Weights table ([2]; animal 23, day 0): dead; efficacy in an animal model of rheumatoid arthritis [3]: effective

Source: US9642861B2, “Methods of treating oral mucositis” (priority 2006, dated 2017)
